Patent US6365606B1, “6,5-fused aromatic ring systems having enhanced phosphodiesterase IV inhibitory activity” (Euro-Celtique, S.A., priority 1996, dated 2002)

What was measured:
Format in all cases: biochemical
[1] = tested on: Type IV PDE isolated from bovine tracheal smooth muscle; test: Type IV PDE activity, hydrolysis of [3H]-cyclic AMP; settings: bovine tracheal smooth muscle enzyme; 0.2 μM cyclic AMP
Description: The Type IV PDE is isolated from bovine tracheal smooth muscle using a procedure similar to that previously described by Silver, P. J., et al.: Eur. J. Pharmacol. 150:85, 1988.(1). Eiiefly, smooth muscle from bovine trachea is minced and homogenized using a polytron in 10 volumes of an extraction buffer containing 10 mM Tris-acetate (pH 7.5), 2 mM magnesium chloride, 1 mM dithiothreitol and 2,000 units/ml of aprotinin. This and all subsequent procedures are performed at 0-4EC. The homogenate is sonicated and then centrifuged at 48,000×g for 30 minutes. The resulting supernatant is applied to a DEAE Trisacryl M column previously equilibrated with sodium acetate and dithiothreitol. After applications of the sample, the column is washed with sodium acetate/dithiothreitol, after which the different forms of PDE are eluted from the column using a linear Tris-HCl/NaCl gradient. Fractions containing Type IV PDE are collected, dialyzed and concentrated to 14% of the original volume. The concentrated fractions are diluted to 50% with ethylene glycol and stored at −20EC.
Enzyme activity is assessed by measuring the hydrolysis of [^3H]-cyclic AMP, as described by Thompson, W. J., et al.: Adv. Cyclic Nucleotide Res. 10:69, 1979. The cyclic AMP concentration used in this assay is 0.2 μM, which approximates to the Km value. Protein concentration is adjusted to ensure that no more than 15% of the available substrate is hydrolyzed during the incubation period.
All test compounds are dissolved in dimethyl sulfoxide (final concentration of 2.5%). This concentration of dimethyl sulfoxide inhibits enzyme activity by approximately 10%.
The compounds are tested over concentration range: 0.1, 1, 10, 100 uM (n=1), and IC50 determinations are made using 5 appropriate concentrations (n=2).

[2] = biological target: T1, Type III PDE isolated from human platelets (Homo sapiens, UniProt Q14432); test: Type III PDE activity, hydrolysis of [3H]-cyclic AMP; settings: human platelet enzyme; 0.2 μM cyclic AMP
T1 construct: Fractions containing PDE III activity are pooled and dialyzed; from tissue; host or cells: human platelets (100,000 x g supernatant, DEAE-Trisacryl M fraction)
T1 sequence (Q14432 whole entry): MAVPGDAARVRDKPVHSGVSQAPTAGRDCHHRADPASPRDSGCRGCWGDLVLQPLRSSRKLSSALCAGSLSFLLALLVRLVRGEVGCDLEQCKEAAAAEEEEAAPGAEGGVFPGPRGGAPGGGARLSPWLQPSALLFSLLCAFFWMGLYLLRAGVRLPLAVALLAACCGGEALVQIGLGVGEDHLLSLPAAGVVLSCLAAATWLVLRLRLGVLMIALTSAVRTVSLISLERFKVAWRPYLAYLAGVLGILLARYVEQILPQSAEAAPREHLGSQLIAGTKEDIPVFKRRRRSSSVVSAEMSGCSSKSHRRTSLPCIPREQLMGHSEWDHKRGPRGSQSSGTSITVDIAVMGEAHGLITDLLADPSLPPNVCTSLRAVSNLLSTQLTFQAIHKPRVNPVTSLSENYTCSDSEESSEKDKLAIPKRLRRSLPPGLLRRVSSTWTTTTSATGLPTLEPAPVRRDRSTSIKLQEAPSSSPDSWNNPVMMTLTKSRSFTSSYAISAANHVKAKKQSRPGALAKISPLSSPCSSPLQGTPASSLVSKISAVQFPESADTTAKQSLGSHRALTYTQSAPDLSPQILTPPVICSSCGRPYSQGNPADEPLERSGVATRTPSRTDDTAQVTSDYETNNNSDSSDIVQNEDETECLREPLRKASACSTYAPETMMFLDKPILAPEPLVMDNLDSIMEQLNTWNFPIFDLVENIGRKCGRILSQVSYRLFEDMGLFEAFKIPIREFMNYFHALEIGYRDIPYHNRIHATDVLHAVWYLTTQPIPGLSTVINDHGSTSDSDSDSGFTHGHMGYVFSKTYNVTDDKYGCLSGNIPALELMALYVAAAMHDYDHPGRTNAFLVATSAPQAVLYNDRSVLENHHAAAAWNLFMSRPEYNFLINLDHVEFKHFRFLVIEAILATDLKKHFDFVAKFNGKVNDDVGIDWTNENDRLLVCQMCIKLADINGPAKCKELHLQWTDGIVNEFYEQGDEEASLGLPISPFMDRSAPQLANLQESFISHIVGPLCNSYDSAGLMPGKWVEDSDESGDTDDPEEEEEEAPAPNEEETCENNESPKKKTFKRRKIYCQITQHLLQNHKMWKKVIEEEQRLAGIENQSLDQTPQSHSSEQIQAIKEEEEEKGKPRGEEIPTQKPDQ
Description: After application of the sample, the column is washed with several bed volumes of buffer B, after which the different forms of PDE are eluted from the column using two successive linear NaCl gradients (0.05-0.15 M, 300 ml total; 0.15-0.40 M, 200 ml total). Five milliliter fractions are collected and assayed for cyclic AMP and cyclic GMP PDE activity.

[3] = biological target: T2, Type V PDE isolated from platelets (Homo sapiens, UniProt O76074); test: Type V PDE activity, hydrolysis of [3H]-cyclic GMP; settings: platelet enzyme; 0.2 uM cyclic GMP
T2 construct: Fractions that contain PDE V are pooled and dialyzed overnight; from tissue; host or cells: platelets (supernatant, DEAE-Trisacryl M fraction)
Description: Briefly, 1-2 units of platelets are suspended in an equal volume of buffer A (20 mM Tris-HCl, pH 7.5, containing 2 mM magnesium acetate, 1 mM dithiothreitol, and 5 mM Na2EDTA) using a polytron. The proteinase inhibitor phenylmethylsulfonyl fluoride (PMSF) are also included in this buffer at a final concentration of 200 uM. […] The homogenate is then centrifuged at 100,000 rpm for 60 minutes. The supernatant is then removed and filtered through four layers of gauze and applied to a DEAE-Trisacryl M column. The column is washed with several bed volumes of buffer B (20 mM Tris-HCl, pH 7.5, containing 2 mM magnesium acetate, 1 mM diothiothreitol, and […] PMSF) and eluted by two successive linear NaCl gradients (0.05-0.15 M, 300 ml total; 0.15-0.40 M, 200 ml total). Five ml fractions are collected and assayed for cyclic AMP and cyclic GMP PDE activity. Fractions that contain PDE V are pooled and dialyzed overnight against 4 L of buffer C (20 mM Tris-HCl, pH 7.5, containing 2 mM magnesium acetate and proteinase inhibitors). […] PDE V can typically be retained for up to four weeks with little or no loss of activity.
The reference Type V PDE inhibitor zaprinast is evaluated with each assay.

Compound | IC50 [1] [nM] | IC50 [2] [nM] | IC50 [3] [nM]
CC(C)(C)c1cc(Cc2nc3cc(Cl)cc(C#Cc4nccs4)c3o2)cc(C(C)(C)C)c1O [Example 3, 5-chloro-2-(3,5-di-t-butyl-4-hydroxy-benzyl)-7-(2-(2-thiazolyl)-ethynyl)-benzoxazole] | 14 |  | 
CC(C)(C)c1cc(Cc2nc3cc(Cl)cc(C#CCO)c3o2)cc(C(C)(C)C)c1O [Example 4, 3-(5-chloro-2-(4-hydroxy-3,5-bis((1,1-dimethyl)ethyl)benzyl)benzoxazol-7-yl)prop-2-yn-1-ol] | 420 | > 300000 | 19500
CC(C)(C)c1cc(Cc2nc3cccc(C#Cc4ccccn4)c3o2)cc(C(C)(C)C)c1O [Example 2] | 700 |  | 
CC(C)(C)c1cc(Cc2nc3cc(Cl)cc(C#Cc4ccccn4)c3o2)cc(C(C)(C)C)c1O [Example 1, 5-chloro-2-(3,5-di-t-butyl-4-hydroxy-benzyl)-7-(2-(2-pyridyl)-ethynyl)-benzoxazole] | 13 |  | 

More lines, now with the values ahead:

IC50 [1] [nM] | IC50 [2] [nM] | IC50 [3] [nM] | Compound
3700 |  |  | COc1ccc(C2CNC(=O)C2)cc1OC1CCCC1 (centres unmarked) [Rolipram, reference compound]
321000 |  |  | Cn1c(=O)c2[nH]cnc2n(C)c1=O [Theophylline, reference compound]
